≈ marks a conversion by molar mass, not a printed value. Calls of active or inactive are those of the source. The calls are words filed in the database; no cut-off is given here.
The compounds below were run on Alternaria citri (assay: Antifungal activity against Alternaria citri CBS 192.81; VIAM MA1628 assessed as inhibition of spore germination at 200 ug/ml by microdilution technique linked with digital image analysis).
Format: functional, organism-based
`COc1ccc([C@@]23Oc4cc(OC)cc(OC)c4[C@]2(O)[C@H](O)C[C@H]3c2ccccc2)cc1` [ROCAGLAOL] was tested, and the Activity was “inactive”.

Each compound was assayed on Pyricularia grisea (assay: Antifungal activity against Magnaporthe grisea VIAM MA1627 assessed as inhibition of spore germination by microdilution technique linked with digital image analysis).
Format: functional, organism-based
`COC(=O)[C@H]1[C@@H](O)[C@@]2(O)c3c(OC)cc(OC)cc3O[C@@]2(c2ccc(OC)cc2)[C@@H]1c1ccccc1` [AGLAFOLIN] was tested, and the EC50 was 0.05 µg/mL (≈ 0.102 µM), the EC90 was 8 µg/mL (≈ 16.2 µM) and the MIC was 3 µg/mL (≈ 6.09 µM). For `COc1ccc(C2C(=O)Oc3cc4c(c(OC)c32)OCO4)cc1` (configuration not stated) [AGLALACTONE], the EC50 was greater than 200 µg/mL, the EC90 was greater than 200 µg/mL and the MIC was greater than 200 µg/mL. `COc1ccc([C@@]23Oc4cc5c(c(OC)c4[C@]2(O)[C@H](O)[C@H](C(=O)N(C)C)[C@H]3c2ccccc2)OCO5)cc1` [AGLAROXIN A] showed an EC50 of 1.4 µg/mL (≈ 2.69 µM), an EC90 greater than 200 µg/mL and an MIC of 100 µg/mL (≈ 192 µM). Compound `CCCCNC(=O)n1c(NC(=O)OC)nc2ccccc21` [BENOMYL] has an EC90 of 84 µg/mL (≈ 289 µM) and an MIC of 200 µg/mL (≈ 689 µM). `CN(CC[C@H](N)CC(=O)N[C@H]1C=C[C@H](n2ccc(N)nc2=O)O[C@@H]1C(=O)O)C(=N)N` [BLASTICIDIN_S] gave an EC90 greater than 200 µg/mL and an MIC greater than 200 µg/mL. `CNC(=O)[C@H]1[C@@H](O)[C@@]2(O)c3c(OC)cc(OC)cc3O[C@@]2(c2ccc(OC)cc2)[C@@H]1c1ccccc1` [DESMETHYL ROCAGLAMIDE] showed an EC50 of 7 µg/mL (≈ 14.2 µM), an EC90 of 146 µg/mL (≈ 297 µM) and an MIC of 100 µg/mL (≈ 203 µM). `COC(=O)[C@H]1[C@@H](O)[C@@]2(O)c3c(cc4c(c3OC)OCO4)O[C@@]2(c2ccc(OC)cc2)[C@@H]1c1ccccc1` [PANNELLIN] showed an EC50 of 0.06 µg/mL (≈ 0.118 µM), an EC90 of 171 µg/mL (≈ 338 µM) and an MIC of 50 µg/mL (≈ 98.7 µM). `COc1ccc([C@@]23Oc4cc(OC)cc(OC)c4[C@]2(O)[C@H](O)[C@H](C(=O)N(C)C)[C@H]3c2ccccc2)cc1` [ROCAGLAMIDE] gave an EC50 of 0.9 µg/mL (≈ 1.78 µM), an EC90 of 35 µg/mL (≈ 69.2 µM) and an MIC of 25 µg/mL (≈ 49.4 µM). `COc1ccc([C@@]23Oc4cc(OC)cc(OC)c4[C@]2(O)[C@H](O)C[C@H]3c2ccccc2)cc1` [ROCAGLAOL] was tested, and the EC50 was 0.01 µg/mL (≈ 0.023 µM), the EC90 was 0.3 µg/mL (≈ 0.69 µM) and the MIC was 1.6 µg/mL (≈ 3.68 µM). For `COc1ccc([C@]2(C(=O)O)Oc3cc4c(c(OC)c3C(=O)[C@H](C(=O)N3CCCC3NC(=O)C(C)C)[C@H]2c2ccccc2)OCO4)cc1` (some centres not stated) [THAPOXEPINE A], the EC50 was greater than 200 µg/mL, the EC90 was greater than 200 µg/mL and the MIC was greater than 200 µg/mL. Work on `COC(=O)[C@@H]1[C@@]2(O)c3c(cc4c(c3OC)OCO4)O[C@]1(c1ccc(OC)cc1)[C@H](c1ccccc1)[C@H]2C(=O)N1CCCC1NC(=O)C(C)C` (some centres not stated) [THAPSAKINACETATE A] yielded an EC50 greater than 200 µg/mL, an EC90 greater than 200 µg/mL and an MIC greater than 200 µg/mL.

These compounds were tested on Alternaria citri (assay: Antifungal activity against Alternaria citri CBS 192.81; VIAM MA1628 assessed as inhibition of spore germination by microdilution technique linked with digital image analysis).
Format: functional, organism-based
Compound `COC(=O)[C@H]1[C@@H](O)[C@@]2(O)c3c(OC)cc(OC)cc3O[C@@]2(c2ccc(OC)cc2)[C@@H]1c1ccccc1` [AGLAFOLIN] has an EC50 of 44 µg/mL (≈ 89.3 µM), an EC90 of 171 µg/mL (≈ 347 µM) and an MIC of 200 µg/mL (≈ 406 µM). `CCCCNC(=O)n1c(NC(=O)OC)nc2ccccc21` [BENOMYL] showed an EC50 greater than 200 µg/mL, an EC90 greater than 200 µg/mL and an MIC greater than 200 µg/mL. `CN(CC[C@H](N)CC(=O)N[C@H]1C=C[C@H](n2ccc(N)nc2=O)O[C@@H]1C(=O)O)C(=N)N` [BLASTICIDIN_S] was tested, and the EC50 was 6 µg/mL (≈ 14.2 µM), the EC90 was 53 µg/mL (≈ 125 µM) and the MIC was 50 µg/mL (≈ 118 µM). `COC(=O)[C@H]1[C@@H](O)[C@@]2(O)c3c(cc4c(c3OC)OCO4)O[C@@]2(c2ccc(OC)cc2)[C@@H]1c1ccccc1` [PANNELLIN] gave an EC50 greater than 200 µg/mL, an EC90 greater than 200 µg/mL and an MIC greater than 200 µg/mL. Work on `COc1ccc([C@@]23Oc4cc(OC)cc(OC)c4[C@]2(O)[C@H](O)[C@H](C(=O)N(C)C)[C@H]3c2ccccc2)cc1` [ROCAGLAMIDE] yielded an EC50 greater than 200 µg/mL, an EC90 greater than 200 µg/mL and an MIC greater than 200 µg/mL. `COc1ccc([C@@]23Oc4cc(OC)cc(OC)c4[C@]2(O)[C@H](O)C[C@H]3c2ccccc2)cc1` [ROCAGLAOL] gave an EC50 of 6 µg/mL (≈ 13.8 µM), an EC90 of 24 µg/mL (≈ 55.2 µM) and an MIC of 50 µg/mL (≈ 115 µM).

These compounds were tested on Fusarium avenaceum (assay: Antifungal activity against Fusarium avenaceum VIAM MA1512 assessed as inhibition of spore germination by microdilution technique linked with digital image analysis).
Format: functional, organism-based
Work on `COC(=O)[C@H]1[C@@H](O)[C@@]2(O)c3c(OC)cc(OC)cc3O[C@@]2(c2ccc(OC)cc2)[C@@H]1c1ccccc1` [AGLAFOLIN] yielded an EC50 of 1.6 µg/mL (≈ 3.25 µM), an EC90 of 38 µg/mL (≈ 77.2 µM) and an MIC of 100 µg/mL (≈ 203 µM). `CCCCNC(=O)n1c(NC(=O)OC)nc2ccccc21` [BENOMYL] showed an EC90 greater than 200 µg/mL and an MIC of 100 µg/mL (≈ 344 µM). `CN(CC[C@H](N)CC(=O)N[C@H]1C=C[C@H](n2ccc(N)nc2=O)O[C@@H]1C(=O)O)C(=N)N` [BLASTICIDIN_S] gave an EC50 of 0.4 µg/mL (≈ 0.947 µM), an EC90 of 7 µg/mL (≈ 16.6 µM) and an MIC of 25 µg/mL (≈ 59.2 µM). `COC(=O)[C@H]1[C@@H](O)[C@@]2(O)c3c(cc4c(c3OC)OCO4)O[C@@]2(c2ccc(OC)cc2)[C@@H]1c1ccccc1` [PANNELLIN] showed an EC50 of 11 µg/mL (≈ 21.7 µM), an EC90 greater than 200 µg/mL and an MIC of 200 µg/mL (≈ 395 µM). Work on `COc1ccc([C@@]23Oc4cc(OC)cc(OC)c4[C@]2(O)[C@H](O)[C@H](C(=O)N(C)C)[C@H]3c2ccccc2)cc1` [ROCAGLAMIDE] yielded an EC50 of 8 µg/mL (≈ 15.8 µM), an EC90 of 66 µg/mL (≈ 131 µM) and an MIC of 200 µg/mL (≈ 396 µM). `COc1ccc([C@@]23Oc4cc(OC)cc(OC)c4[C@]2(O)[C@H](O)C[C@H]3c2ccccc2)cc1` [ROCAGLAOL] showed an EC50 of 0.4 µg/mL (≈ 0.921 µM), an EC90 of 9 µg/mL (≈ 20.7 µM) and an MIC of 25 µg/mL (≈ 57.5 µM).

Reference: ChEMBL document CHEMBL3045131, “Cyclopenta[b]benzofurans from Aglaia species with pronounced antifungal activity against rice blast fungus (Pyricularia grisea)” (J Agric Food Chem, 2000)
